Reference: publication PMC8190080, “Tanshinones induce tumor cell apoptosis via directly targeting FHIT” (Scientific Reports, 2021)

How the values were obtained:
FHIT = target: T1, FHIT (Homo sapiens, UniProt P49789); assay: MST assay, purified Red-NHS labeled FHIT; assay type: binding
T1 construct: GST (N, cleaved yes); made in house; host or cells: E. coli BL21 (DE3)
Experimental: The gene encoding human FHIT (P49789) was synthesized (Genscript, China) and cloned into pGEX-6P-1 such that the expressed protein would have an N-terminal glutathione S-transferase (GST)-tagged protein. The construct was transformed into expression host E.coli BL21 (DE3), and cells were grown in LB medium at 37 °C until the OD600 reached 0.6. The cells were then induced by adding 0.1 mM isopropyl-β-D-l-thiogalactopyranoside (IPTG) and grown at 18 °C overnight. Cells were harvested by centrifugation. The cell pellet was resuspended in a buffer containing 20 mM Tris (pH 7.5), 500 mM NaCl, and 2 mM DTT and lysed by sonication. After centrifugation, the clarified cell lysate was incubated with glutathione-sepharose 4B beads, and GST-tagged FHIT was eluted with the buffer consisting of 50 mM reduced glutathione. […]
Ten million 293 cells overexpressing GFP-tagged FHIT or free GFP were lysed in 0.5 mL M-PER mammalian protein extraction reagent (Thermo Fisher Scientific). […] The fluorescence signal during the thermophoresis was monitored and the change in fluorescence was analyzed by software. The Kd was calculated by fitting a standard binding curve to the series diluted ligands. And data were analyzed by GraphPad Prism 7.0.

HINT1 = target: T2, HINT1 (Homo sapiens, UniProt P49773); assay: MST assay, purified HINT1; assay type: binding
T2 construct: 6xHis (N); made in house; host or cells: E. coli BL21(DE3)
T2 sequence (P49773 whole entry): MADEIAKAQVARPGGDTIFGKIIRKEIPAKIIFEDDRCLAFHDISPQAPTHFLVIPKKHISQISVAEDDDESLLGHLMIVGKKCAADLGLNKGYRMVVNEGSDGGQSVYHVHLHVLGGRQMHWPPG

GALT = target: T3, GALT (Homo sapiens, UniProt P07902); assay: MST assay, purified GALT; assay type: binding
T3 construct: 6xHis (N); made in house; host or cells: E. coli BL21(DE3)
T3 sequence (P07902 whole entry): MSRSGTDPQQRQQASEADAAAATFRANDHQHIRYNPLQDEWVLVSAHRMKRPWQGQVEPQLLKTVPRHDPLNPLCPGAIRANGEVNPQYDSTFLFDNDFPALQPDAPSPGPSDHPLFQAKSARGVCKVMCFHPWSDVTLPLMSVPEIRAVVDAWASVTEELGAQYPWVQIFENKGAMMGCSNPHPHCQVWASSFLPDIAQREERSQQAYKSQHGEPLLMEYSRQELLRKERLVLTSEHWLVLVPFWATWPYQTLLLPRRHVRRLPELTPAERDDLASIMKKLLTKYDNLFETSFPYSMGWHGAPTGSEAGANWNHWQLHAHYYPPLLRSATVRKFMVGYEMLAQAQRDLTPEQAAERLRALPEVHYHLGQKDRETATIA

DCPS = target: T4, DCPS (Homo sapiens, UniProt Q96C86); assay: MST assay, purified DCPS; assay type: binding
T4 construct: 6xHis (N); made in house; host or cells: E. coli BL21(DE3)
T4 sequence (Q96C86 1-337): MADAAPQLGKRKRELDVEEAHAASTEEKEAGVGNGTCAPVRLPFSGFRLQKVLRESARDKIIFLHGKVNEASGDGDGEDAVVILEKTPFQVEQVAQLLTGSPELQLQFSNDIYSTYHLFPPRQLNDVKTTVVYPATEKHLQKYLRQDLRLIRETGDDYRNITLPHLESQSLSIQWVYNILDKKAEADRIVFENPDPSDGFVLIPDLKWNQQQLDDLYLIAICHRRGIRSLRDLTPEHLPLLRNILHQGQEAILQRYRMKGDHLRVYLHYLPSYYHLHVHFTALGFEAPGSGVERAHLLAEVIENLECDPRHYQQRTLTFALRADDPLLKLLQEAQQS

HCT116 cells = assay: Colony formation assay; assay type: cell-based, human; conditions: up to 10 µM, 14 days
Experimental: ENPP1 hydrolase activity detection assay
ENPP1 protein (4ng/µl) was mixed with series diluted compounds as indicated in assay buffer (50mM Tris-HCl, 2mM CaCl2, 2mM MgCl2, pH9.0) in a final DMSO concentration of 1% in a total volume of 20μL. The mixtures were incubated for 30min at 25°C, then 4µM Ap3A was added. After incubation at 25°C for 10min, ENPP1 should be inactivated at 85°C for 5min.
Then the production of ADP in the reaction system was detected by ADP-Glo reagent (V6930, Promega) according to the manufacturer’s protocol in 384-well. Luminescence was read by spark (TECAN), an integration time of 1 second per well. And the data were analyzed by […]
Fluorescent thin layer enzyme assay for ENPP1
Small molecules, when indicated at series concentrations, were mixed with 2.5µM the fluorescent substrate ApppBODIPY. Then, 10nM purified ENPP1 protein was added to the reaction system at 25°C containing 50mM Tris-HCl pH9.0, 2mM CaCl2, 2mM MgCl2. Reaction samples (0.6µL) were spotted on silica TLC plates (Merck) at 60–120s intervals. Plates were air-dried and developed in 2-propanol:NH4OH:1,4-dioxane: H2O (50:35:8:7) as reported before. Developed plates were imaged by fluorescein blot (ChemiDoc, Bio-rad).
Colony formation assay was performed as described before. Briefly, ~200/well single cells were planted into 6-well plate. […]

FHIT truncation TR3 = target: T5, FHIT truncation TR3 (Homo sapiens, UniProt P49789); assay: Cellular MST assay, GFP tagged FHIT truncation TR3 (C-terminal only); assay type: binding
T5 construct: expressed in transfected cells; host or cells: HEK293T / 293 cells (inferred from the cellular MST method)
T5 sequence (P49789 109-147 limits assumed): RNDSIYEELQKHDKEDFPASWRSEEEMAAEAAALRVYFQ
Experimental: Ten million 293 cells overexpressing GFP-tagged FHIT or free GFP were lysed in 0.5 mL M-PER mammalian protein extraction reagent (Thermo Fisher Scientific). Cell lysates were diluted in PBS buffer to a final concentration at which the fluorescent signals of the GFP proteins were suitable for the detection of the Monolith NT.115 instrument (NanoTemper Technologies). A single point screening assay was developed against GFP-FHIT protein to find potential binding molecules from compound libraries (L1021,APExBIO). For binding affinity detection, a 10µL protein sample was mixed with 10µL ligand at various concentrations as indicated. And the purified proteins were labeled by Red- NHS kit in accordance with the manufacturer’s protocol (MO-L011, NanoTemper Technologies). Then the mixture solutions were loaded into NT.115 standard coated capillaries or premium coated capillaries (NanoTemper Technologies), and the MST measurements were performed at 25 °C. The fluorescence signal during the thermophoresis was monitored and the change in fluorescence was analyzed by software. The Kd was calculated by fitting a standard binding curve to the series diluted ligands. And data were analyzed by GraphPad Prism 7.0.

T1 sequence (P49789 whole entry): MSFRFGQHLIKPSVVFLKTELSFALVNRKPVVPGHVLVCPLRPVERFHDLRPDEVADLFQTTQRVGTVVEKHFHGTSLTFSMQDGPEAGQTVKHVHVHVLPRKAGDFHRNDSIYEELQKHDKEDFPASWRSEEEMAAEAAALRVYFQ

Cc1c(S(=O)(=O)O)oc2c1C(=O)C(=O)c1c-2ccc2c1CCCC2(C)C [STS, Sodium tanshinone IIA sulfonate]
Kd (FHIT; FHIT purified from E.coli, Red-NHS labeled, MST): 1.82 ± 0.3 µM | binding affinity of purified FHIT, times lower than cellular FHIT (FHIT; purified FHIT vs cellular GFP-FHIT): 5 | direct binding (MST binding curve) (HINT1): no direct binding curve was observed | Kd (GALT): 12.9 ± 0.54 µM | Kd (DCPS): 9.31 ± 0.4 µM | colony formation of HCT116 cells (HCT116 cells): no effect was detected | Kd (FHIT truncation TR3): No Kd value was calculated
